Earlier results, collected in publication PMC6394493 (Cancer Chemotherapy and Pharmacology, 2018).

Tested on: pS6
Parameters: method as in PMID 25673697
Conditions: patients with advanced solid tumors; cited from earlier work

SMILES: CO[C@H]1C[C@@H]2CC[C@@H](C)[C@@](O)(O2)C(=O)C(=O)N2CCCC[C@H]2C(=O)O[C@H]([C@H](C)C[C@@H]2CC[C@@H](OCCO)[C@H](OC)C2)CC(=O)[C@H](C)/C=C(\C)[C@@H](O)[C@@H](OC)C(=O)[C@H](C)C[C@H](C)/C=C/C=C/C=C/1C [everolimus]
- changes in pS6 in skin biopsies: induce changes in pS6
